Laboratory results as given in patent publication EP0618807B1, “A STABILIZED PHARMACEUTICAL FORMULATION COMPRISING GROWTH HORMONE AND HISTIDINE” (NOVO NORDISK A/S, priority 1991, dated 1993).

Key:
[1] = Stability statements of the general description (deamidation, stability in solution); type: physicochemical; settings: addition of the solvent to the hGH preparation
[2] = Example 2: deamidation at 25°C with histidine or histidine derivatives, desamido content by IE-HPLC; type: physicochemical; settings: compared to phosphate at pH 6.5
Description: The rate of deamidation was examined at 25°C for hGH preparations comprising 6 IU hGH at pH 6.5 and at pH 7.3 in 5 mM, 10 mM and 100mM His buffer as compared to 8 mM phosphate buffer at the same pH. Furthermore, the histidine derivatives His-Gly, His-Ala, His-Leu, His-Lys, His-Phe, His-Ser, Histidine methyl ester, histidinol, imidazole, imidazole-4-acetic acid and histamine were tested.
The hGH preparations were prepared by dissolving 20 mg hGH in 10 ml of histidine buffer of the desired strength prepared by dissolving 7.8 mg, 15.5 mg and 155.2 mg, respectively, of histidine in 10 ml deionized water containing 0.9% (v/v) of benzyl alcohol and adding 0.1 N hydrochloric acid to achieve the stated pH.
The hGH formulations stated in Table 2 below were stored at 25°C and analyzed for their desamido content after 14 and 30 days by IE-HPLC.

CO [5% methanol, methanol]
reduction in the deamidation [1]: more than 20%

CCO [10% ethanol, ethanol]
reduction in the deamidation [1]: more than 20%

OCc1ccccc1 [benzyl alcohol]
effect on de-amidation / stabilization (in words) [2]: no influence

Cc1cccc(O)c1 [m-cresol]
effect on de-amidation / stabilization (in words) [2]: no influence
